From the supplement of paper PMC11208160

Assay: recombinant barcode read abundance after kanamycin selection (control-corrected) (log10(CPM+1)); higher = more efficient recombination; sequences stand for … in AGTGCAGAGAAAATCGGCCAGTTTTCTCTGCCTGCAGTCCGCATGCCGT…AGATTTATGCAGCGGACTGCCTTTCTCCCAAAGTGATAAACCGGACAGTATCATGGACCGGTTTTCCCGGTAATCCGTATTTGCAAGGTTGGTTTCACT; site = the 11-nt target
Outline: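 In E. coli, a pooled library matched targets to IS621 bridge RNA target-binding loops and was introduced alongside a donor plasmid. Cells went onto chloramphenicol/ampicillin/kanamycin with 0.1 mM IPTG or onto chloramphenicol/ampicillin LB agar as control, in duplicate. Recombination efficiency, from recombinant-junction barcodes as counts per million, is averaged and control-corrected. It is reported as log10(CPM+1).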
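Further: IS621 recombinase and bridge RNA in Escherichia coli cells.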

Sequence | recombinant barcode read abundance (log10)
CACTGAGCTTGGGTTCTAACCTGTTGCCT (site TACTGAGCTAG) | 0.229
CACTGATCTTGGGTTCTAACCTGTTGCCT (site CACTGATCTAG) | 1.28
CACTGATCTTGGGTTCTAACCTGTTGCCT (site CACTGCTCTAG) | 0.0175
CACTGATCTTGGGTTCTAACCTGTTGCCT (site CACTGGTCTAG) | 0.281
CACTGATCTTGGGTTCTAACCTGTTGCCT (site CACTGTTCTAG) | 0.302
CACTTTGCTTGGGTTCTAACCTGTTGCCT (site AGGGAGACTGA) | 0.145
CACTTTGCTTGGGTTCTAACCTGTTGCCT (site CACTTTGCTAG) | 0.207
CAGAATCCTTGGGTTCTAACCTGTTGCGG (site CAGAATCCTCC) | 1.73
CAGAATCCTTGGGTTCTAACCTGTTGCGG (site TCTCTCGCTAG) | 0.0949
CAGACGACTTGGGTTCTAACCTGTTGCCA (site CAGACGACTTG) | 0.37
CAGACGACTTGGGTTCTAACCTGTTGCCA (site TGCTGTCCTAA) | 0.0664
CAGAGATCTTGGGTTCTAACCTGTTGCTT (site CAAAGATCTAA) | 0.328
CAGAGATCTTGGGTTCTAACCTGTTGCTT (site CACAGATCTAA) | 0.137
CAGAGATCTTGGGTTCTAACCTGTTGCTT (site CAGAGATCTAA) | 1.33
CAGAGATCTTGGGTTCTAACCTGTTGCTT (site CATAGATCTAA) | 0.104
CAGAGCTCTTGGGTTCTAACCTGTTGCCG (site AGACAGACTAC) | 0.078
CAGAGCTCTTGGGTTCTAACCTGTTGCCG (site CAGAGCTCTCG) | 2.05
CAGAGTCCTTGGGTTCTAACCTGTTGCAT (site CAGAGTCCTAG) | 0.852
CAGAGTCCTTGGGTTCTAACCTGTTGCAT (site CAGAGTCCTAT) | 1.88
CAGATTCCTTGGGTTCTAACCTGTTGCCT (site CAGATTCCTAG) | 0.542

Sequence | recombinant barcode read abundance (log10)
CAGATTCCTTGGGTTCTAACCTGTTGCCT (site GAGATTCCTAG) | 0.222
CAGCCACCTTGGGTTCTAACCTGTTGCCT (site AAGCCACCTAG) | 0.0775
CAGCCACCTTGGGTTCTAACCTGTTGCCT (site CAGCCACCTAG) | 1.4
CAGCCACCTTGGGTTCTAACCTGTTGCCT (site GAGCCACCTAG) | 0.0262
CAGCCACCTTGGGTTCTAACCTGTTGCCT (site TAGCCACCTAG) | 0
CAGCGGTCTTGGGTTCTAACCTGTTGCGA (site CAGCGGTCTTC) | 1.65
CAGCGGTCTTGGGTTCTAACCTGTTGCGA (site TTATACACTCT) | 0.0232
CAGCTAACTTGGGTTCTAACCTGTTGCCT (site CAAATAACTAG) | 0.0162
CAGCTAACTTGGGTTCTAACCTGTTGCCT (site CAGCTAACTAG) | 1.54
CAGGCGCCTTGGGTTCTAACCTGTTGCCT (site CAGGCGACTAG) | 0.335
CAGGCGCCTTGGGTTCTAACCTGTTGCCT (site CAGGCGCCTAG) | 0.979
CAGGCGCCTTGGGTTCTAACCTGTTGCCT (site CAGGCGGCTAG) | 0.178
CAGGCGCCTTGGGTTCTAACCTGTTGCCT (site CAGGCGTCTAG) | 0.527
CAGGCGTCTTGGGTTCTAACCTGTTGCCT (site CAGGCGACTAG) | 0.109
CAGGCGTCTTGGGTTCTAACCTGTTGCCT (site CAGGCGCCTAG) | 0.289
CAGGCGTCTTGGGTTCTAACCTGTTGCCT (site CAGGCGGCTAG) | 0.111
CAGGCGTCTTGGGTTCTAACCTGTTGCCT (site CAGGCGTCTAG) | 0.59
CAGGGGACTTGGGTTCTAACCTGTTGCCG (site CAAGGGACTCC) | 0.177
CAGGGGACTTGGGTTCTAACCTGTTGCCG (site CAGGGGACTCG) | 0.734
CAGGGGTCTTGGGTTCTAACCTGTTGCAT (site AGCCTCCCTTG) | 0.0284

Sequence | recombinant barcode read abundance (log10)
CAGGGGTCTTGGGTTCTAACCTGTTGCAT (site CAGGGGTCTAT) | 2.04
CAGTAATCTTGGGTTCTAACCTGTTGCCT (site CAGTAATCTAG) | 0.683
CAGTAATCTTGGGTTCTAACCTGTTGCCT (site CAGTACTCTAG) | 0.138
CAGTAATCTTGGGTTCTAACCTGTTGCCT (site CAGTAGTCTAG) | 0.169
CAGTAATCTTGGGTTCTAACCTGTTGCCT (site CAGTATTCTAG) | 0
CAGTCTACTTGGGTTCTAACCTGTTGCCT (site CAGTCTACTAG) | 0.115
CAGTCTACTTGGGTTCTAACCTGTTGCCT (site CCGTCTACTAG) | 0.26
CAGTCTACTTGGGTTCTAACCTGTTGCCT (site CGGTCTACTAG) | 0.132
CAGTCTACTTGGGTTCTAACCTGTTGCCT (site CTGTCTACTAG) | 0.0878
CATAACTCTTGGGTTCTAACCTGTTGCCT (site AATAACTCTAG) | 0.0585
CATAACTCTTGGGTTCTAACCTGTTGCCT (site CATAACTCTAG) | 1.3
CATAACTCTTGGGTTCTAACCTGTTGCCT (site GATAACTCTAG) | 0.331
CATAACTCTTGGGTTCTAACCTGTTGCCT (site TATAACTCTAG) | 0.0747
CATAAGCCTTGGGTTCTAACCTGTTGCCT (site CATAAGCCTAG) | 0.633
CATAAGCCTTGGGTTCTAACCTGTTGCCT (site CATCAGCCTAG) | 0.07
CATAAGCCTTGGGTTCTAACCTGTTGCCT (site CATGAGCCTAG) | 0.0152
CATAAGCCTTGGGTTCTAACCTGTTGCCT (site CATTAGCCTAG) | 0.0852
CATAGATCTTGGGTTCTAACCTGTTGCAT (site ATCTAGGCTCG) | 0.0128
CATAGATCTTGGGTTCTAACCTGTTGCAT (site CATAGATCTAT) | 1.22
